Source: patent US8586505B2 (SDS Biotech K. K., priority 2009, dated 2013)

Key:
Phytophthora infestans = assay: whole plant or invertebrate; format: in vivo; conditions: in Solanum lycopersicum, 96 h, read-out: Determination of control effect (preventive value)
[1] = system: Pseudoperonospora cubensis; assay: Test of examining control effect on Pseudoperonospora cubensis (potted cucumber plants); format: in vivo; conditions: 96 h, 10% wettable powder adjusted to 125 ppm, 15 ml/pot sprayed on potted cucumber plants one day before spray inoculation, assessed after 1 day wet chamber and 3 days greenhouse, read-out: Determination of control effect (preventive value) on Pseudoperonospora cubensis
Summary of the method: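 Cucumber plants (Sagamihanjiro, 2.5-leaf stage) sprayed with 125 ppm compound solution from 10% wettable powder, 15 ml/pot. One day later, spray-inoculated with P. cubensis conidia (1.0×10^4 cells/ml), kept 1 day at 21° C wet, then 3 days in greenhouse. Preventive value derived from lesion area relative to untreated plants.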

Sphaerotheca fuliginea = assay: Test of examining control effect on Sphaerotheca fuliginea (potted cucumber plants); format: in vivo; conditions: Podosphaera fuliginea, 336 h; 10% wettable powder adjusted to 125 ppm, 15 ml/pot sprayed on potted cucumber plants one day before spray inoculation; assessed after 14 days in greenhouse; read-out: Determination of control effect (preventive value) on Sphaerotheca fuliginea
Summary of the method: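 Cucumber plants (Sagamihanjiro, 2nd leaf stage) sprayed with 125 ppm compound (from 10% wettable powder), inoculated one day later with S. fuliginea conidia (1.0×10^5 cells/ml); lesion area scored after 14 days in greenhouse. Preventive value vs untreated; ≥60% high, <60% low control.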

SMILES | pest or weed control at 125 ppm (Phytophthora infestans) | pest or weed control at 125 µg/mL [1] | pest or weed control at 125 µg/mL (Sphaerotheca fuliginea) | melting point
COCc1cc(F)c(F)cc1C#CCCNc1ncnc2ccccc12 [compound 146] | 60 to 100% | 60 to 100% | 60 to 100% | 121 to 125 °C
CC(C)(C)[Si](C)(C)C#CCCNc1ncnc2sccc12 [compound 5] | 0 to 60% | 60 to 100% | 60 to 100% | 190 to 192 °C
FC(F)(F)c1cc(C#CCCNc2ncnc3sccc23)cc(C(F)(F)F)c1 [compound 28] | 0 to 60% | 0 to 60% | 0 to 60% | 163 to 166 °C
C(#Cc1ccc(OC2CCCCO2)cc1)CCNc1ncnc2ccccc12 (centres unmarked) [compound 156] | 60 to 100% | 60 to 100% | 60 to 100% | 163 to 165 °C
Clc1ncnc(NCCC#Cc2ccccc2)c1Cl [compound 357] | 60 to 100% | 60 to 100% | 0 to 60% | 122 to 123 °C
Cc1nc(C#CCCNc2ncnc3sccc23)cs1 [compound 66] | 0 to 60% | 60 to 100% | 0 to 60% | 160 to 161 °C
Fc1cc(C#CCCNc2ncnc3sccc23)cc(F)c1F [compound 43] | 60 to 100% | 60 to 100% |  | 158 to 159 °C
C(#Cc1csc(-c2ccoc2)n1)CCNc1ncnc2sccc12 [compound 78] | 0 to 60% | 60 to 100% | 60 to 100% | 140 to 142 °C
Fc1cccc(F)c1C#CCCNc1ncnc2sccc12 [compound 42] | 60 to 100% | 60 to 100% |  | 179 to 181 °C
Clc1ccc(C#CCCNc2ncnc3ccccc23)c(Cl)c1 [compound 172] | 60 to 100% | 60 to 100% | 60 to 100% | 182 to 183 °C
Cc1scnc1C#CCCNc1ncnc2sccc12 [compound 65] | 60 to 100% | 60 to 100% | 60 to 100% | 148 to 150 °C
FC(F)(F)c1ccccc1Oc1nc(C#CCCNc2ncnc3ccccc23)cs1 [compound 218] | 0 to 60% | 60 to 100% | 0 to 60% | 159 to 161 °C
CSc1cccc(C#CCCNc2ncnc3ccccc23)c1 [compound 116] | 60 to 100% | 60 to 100% | 60 to 100% | 141 to 142 °C
O=[N+]([O-])c1cccc(C#CCCNc2ncnc3sccc23)c1 [compound 39] | 60 to 100% | 60 to 100% |  | 171 to 172 °C
C(#Cc1csc(-c2cccnc2)n1)CCNc1ncnc2sccc12 [compound 81] | 0 to 60% | 60 to 100% | 0 to 60% | 175 to 177 °C
Clc1ccc(Cl)c(C#CCCNc2ncnc3ccccc23)c1 [compound 173] | 0 to 60% | 60 to 100% | 60 to 100% | 176 to 177 °C
C=C(C)CCc1ccccc1C#CCCNc1ncnc2ccccc12 [compound 105] | 60 to 100% | 60 to 100% | 60 to 100% | 92 to 94 °C
Clc1cc(NCCC#Cc2ccccc2)ncn1 [compound 358] | 0 to 60% | 0 to 60% | 60 to 100% | 118 to 120 °C
COc1cccc(Oc2nc(C#CCCNc3ncnc4ccccc34)cs2)c1 [compound 216] | 60 to 100% | 60 to 100% | 60 to 100% | 77 to 79 °C
FC(F)(F)c1ccc(Oc2nc(C#CCCNc3ncnc4ccccc34)cs2)cc1 [compound 220] | 0 to 60% | 0 to 60% | 60 to 100% | 137 to 139 °C
COc1ccc(Oc2nc(C#CCCNc3ncnc4ccccc34)cs2)cc1 [compound 217] | 0 to 60% | 60 to 100% | 60 to 100% | 150 to 152 °C
Clc1ccc(C#CCCNc2ncnc3ccccc23)cc1Cl [compound 175] | 0 to 60% | 60 to 100% | 60 to 100% | 147 to 148 °C
FC(F)(F)c1ccc(Cl)c(C#CCCNc2ncnc3ccccc23)c1 [compound 176] | 0 to 60% | 60 to 100% | 60 to 100% | 144 to 145 °C

SMILES | pest or weed control at 125 ppm (Phytophthora infestans) | pest or weed control at 125 µg/mL [1] | pest or weed control at 125 µg/mL (Sphaerotheca fuliginea) | melting point
Clc1ncnc(NCCC#Cc2ccccc2)c1Cc1ccccc1 [compound 372] | 0 to 60% | 0 to 60% | 0 to 60% | 157 to 158 °C
FC(F)(F)c1cccc(C#CCCNc2ncnc3sccc23)c1 [compound 26] | 0 to 60% | 60 to 100% | 60 to 100% | 123 to 125 °C
OCc1nc(C#CCCNc2ncnc3sccc23)cs1 [compound 70] | 60 to 100% | 60 to 100% | 60 to 100% | 193 °C
O=[N+]([O-])c1ccc(C#CCCNc2ncnc3sccc23)cc1 [compound 40] | 60 to 100% | 60 to 100% |  | 184 to 185 °C
C(#Cc1csc(-c2ccco2)n1)CCNc1ncnc2sccc12 [compound 77] | 0 to 60% |  | 0 to 60% | 53 to 55 °C
Fc1ccc(C#CCCNc2ncnc3sccc23)c(F)c1 [compound 41] | 60 to 100% | 60 to 100% |  | 177 to 178 °C
C(#Cc1cccnc1)CCNc1ncnc2sccc12 [compound 56] | 0 to 60% | 60 to 100% |  | 138 to 140 °C
COCc1ccccc1C#CCCNc1ncnc2ccc(OC)cc12 [compound 329] | 60 to 100% | 60 to 100% | 60 to 100% | 
C=CC(CC#Cc1ccc(F)cc1)Nc1ncnc2ccccc12 (centres unmarked) [compound 297] | 0 to 60% | 60 to 100% | 60 to 100% | 
COCc1cc(F)ccc1C#CCCNc1ncnc2ccccc12 [compound 139] | 60 to 100% | 60 to 100% | 60 to 100% | 
COCc1ccccc1C#CCCNc1ncnc2c(Cl)cccc12 [compound 311] | 60 to 100% | 60 to 100% | 60 to 100% | 
Cc1ccsc1C#CCCNc1ncnc2ccccc12 [compound 208] | 60 to 100% | 60 to 100% | 60 to 100% | 
CC(CC#Cc1ncccc1C(F)(F)F)Nc1ncnc2sccc12 (centres unmarked) [compound 264] | 60 to 100% | 60 to 100% | 60 to 100% | 
Cc1ccc(Oc2ccc(C#CCCNc3ncnc4ccccc34)cc2)cc1 [compound 186] | 0 to 60% | 0 to 60% | 60 to 100% | 
OCCc1ccccc1C#CCCNc1ncnc2ccccc12 [compound 158] | 0 to 60% | 60 to 100% | 60 to 100% | 
O=[N+]([O-])c1c(Cl)ncnc1NCCC#Cc1ccccc1C(F)(F)F [compound 370] | 0 to 60% | 0 to 60% | 0 to 60% | 
C#CCC(Nc1ncnc2ccccc12)c1ccccc1 (centres unmarked) [compound 300, 4-[(1-Phenyl-3-butynyl)amino]quinazoline] | 0 to 60% | 60 to 100% | 60 to 100% | 
Cc1nc(C#CCC(C)Nc2ncnc3sccc23)cs1 (centres unmarked) [compound 266] | 60 to 100% | 60 to 100% | 60 to 100% | 
CC(C)(C)C#CCCNc1ncnc2sccc12 [compound 8] | 60 to 100% | 60 to 100% | 60 to 100% | 
COc1ccccc1C#CCC(C)Nc1ncnc2ccccc12 (centres unmarked) [compound 276] | 60 to 100% | 60 to 100% | 0 to 60% | 
CC(CC#Cc1ccc(Cl)c(C(F)(F)F)c1)Nc1ncnc2ccccc12 (centres unmarked) [compound 284] | 0 to 60% | 60 to 100% | 60 to 100% | 
OCc1ccccc1C#CCCNc1ncnc2ccccc12 [compound 130] | 60 to 100% | 60 to 100% | 60 to 100% | 
